Experimental data published in patent US20250214947A1, “3,4-DIHYDROQUINOXALINE-2-CARBOXIMIDE DERIVATIVE COMPOUND AND PHARMACEUTICAL COMPOSITION COMPRISING SAME FOR PREVENTING OR TREATING CANCER DISEASE” (Cureverse Incorporated, priority 2022, published 2025).

Key:
HDAC2 = HDAC2 (Homo sapiens, UniProt Q92769); experiment: Selective inhibitory effect, HDAC Fluorogenic assay kit, HDAC2; details: read-out: HDAC2 enzyme activity (%)
Method: (§3) For analysis, HDAC substrate 3 was diluted in buffer to a concentration of 200 μM and used in HDAC 1, 2, 3, 6, and 10 assays, HDAC substrate 2A was diluted in buffer to a concentration of 200 μM and used in HDAC 4, 7, 9, and 11 assays, HDAC substrate 2A was diluted in buffer to a concentration of 20 μM and used in HDAC 8 assays. For the HDAC 11 assay, a dedicated buffer included in the kit was used separately, and the same buffer was used for the remaining assays. The compound of the Example was diluted to 1 mM (1% DMSO concentration) using DMSO to obtain a final concentration of 10 μM, and prepared by diluting 1/10 with assay buffer. In a 96-well black round-bottom plate, 5 μL of the diluted compound of the Example, 5 μL of the diluted HDAC substrate, 5 μL of BSA (1 mg/ml), 5 μL of the HDAC enzyme diluted to the appropriate concentration, and 30 μL of assay buffer were added, and the enzyme reaction was performed at 37° C. for 30 minutes. […] Afterwards, 50 μL of 2×HDAC developer was added to each well. After reacting for 15 minutes at room temperature, the fluorescence values at excitation wavelengths of 350-380 nm and emission wavelengths of 440-460 nm were measured using a microplate reader (Synergy Neo).

[1] = Body weight of mice during drug administration, liver cancer model; type: in vivo, nude mice; details: 50 mg/kg once a day; drug administration period; FIG. 7D
Method: (§1) In addition, a liver cancer model was established by subcutaneously transplanting Huh-7 cell lines into nude mice. After establishing the liver cancer model, the mice were divided into two groups (group 1: vehicle administration group, group 2: 50 mg/kg Example 27 compound administration group). The drug was administered once a day for 12 times. To evaluate therapeutic efficacy, tumor volume was measured before drug administration and on days 4, 7, 10, 13, and 15 after drug administration. Tumor volume (mm^3) was calculated as follows (tumor volume (mm^3)=(A×B^2)/2, where A=tumor long axis, B=tumor short axis). Body weight was measured before administration and on days 4, 7, 10, 13, and 15 after drug administration during the drug administration period. Tumor was excised on day 15 after drug treatment and body weight was measured.

HDAC8 [2] = target: T1, HDAC8 (Homo sapiens, UniProt Q9BY41); experiment: Selective inhibitory effect, HDAC Fluorogenic assay kit, HDAC8; type: biochemical; details: versus HDAC1, 2, 3, 4, 6, 7, 9, 10, 11; 10 μM
T1 construct: purchased BPS bioscience
T1 sequence (Q9BY41 1-377): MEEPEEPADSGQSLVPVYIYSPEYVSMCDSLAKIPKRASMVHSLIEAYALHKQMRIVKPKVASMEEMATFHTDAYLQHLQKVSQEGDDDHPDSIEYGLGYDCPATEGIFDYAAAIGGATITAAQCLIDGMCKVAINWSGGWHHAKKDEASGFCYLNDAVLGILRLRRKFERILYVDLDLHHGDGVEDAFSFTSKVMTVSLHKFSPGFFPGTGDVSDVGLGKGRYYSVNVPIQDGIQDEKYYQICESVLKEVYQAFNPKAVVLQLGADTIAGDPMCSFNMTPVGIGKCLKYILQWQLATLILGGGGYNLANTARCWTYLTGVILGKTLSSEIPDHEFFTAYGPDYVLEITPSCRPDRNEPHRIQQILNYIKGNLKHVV
Method: as §3

[3] = test system: PC-3 prostate cancer cells; experiment: Prostate cancer cell growth inhibition, CCK-8 assay; type: cell-based, human; details: various concentrations; 24 hours and 48 hours; FIG. 1
Method: PC-3, a human-derived prostate cancer cell line, was cultured with RPMI1640 (10% fetal bovine serum, 1% Penicillin Streptomycin) culture medium at 37° C., 5% CO2 condition. All cells in the experiment were subcultured when they reached a confluency of approximately 80% to 90%, and only cells that had not passed 20 passages were used.
After culturing, 10 L CCK-8 reagent was added and the absorbance was measured after 1 hour. The absorbance was measured at 450 nm using a microplate reader [BMG Labtech (Offenburg, Germany)].

HDAC10 = target: T2, HDAC10 (Homo sapiens, UniProt Q969S8); experiment: Selective inhibitory effect, HDAC Fluorogenic assay kit, HDAC10; details: read-out: HDAC10 enzyme activity (%)
T2 sequence (Q969S8 1-669): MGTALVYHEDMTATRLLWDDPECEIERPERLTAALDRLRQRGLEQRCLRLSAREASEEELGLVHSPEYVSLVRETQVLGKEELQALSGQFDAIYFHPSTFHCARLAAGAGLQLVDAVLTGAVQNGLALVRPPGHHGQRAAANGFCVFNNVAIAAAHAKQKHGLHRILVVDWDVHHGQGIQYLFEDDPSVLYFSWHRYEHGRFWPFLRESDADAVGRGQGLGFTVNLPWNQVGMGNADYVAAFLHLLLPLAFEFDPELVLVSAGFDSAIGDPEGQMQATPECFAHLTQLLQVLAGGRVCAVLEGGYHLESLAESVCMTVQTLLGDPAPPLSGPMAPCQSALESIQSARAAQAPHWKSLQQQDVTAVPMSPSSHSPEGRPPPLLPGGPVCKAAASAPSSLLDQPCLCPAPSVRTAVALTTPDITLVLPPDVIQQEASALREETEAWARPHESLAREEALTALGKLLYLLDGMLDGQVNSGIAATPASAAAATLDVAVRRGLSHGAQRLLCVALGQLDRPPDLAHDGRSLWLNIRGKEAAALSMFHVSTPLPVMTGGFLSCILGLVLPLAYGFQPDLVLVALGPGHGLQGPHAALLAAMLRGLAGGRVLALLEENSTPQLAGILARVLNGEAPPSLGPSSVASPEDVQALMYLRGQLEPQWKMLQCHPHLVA
Method: as §3

Huh-7 cell lines = experiment: Liver cancer model, Huh-7 cell lines subcutaneously transplanted into nude mice; type: in vivo; details: 50 mg/kg once a day
Method: as §1

PC-3 cell lines = experiment: Prostate cancer model, PC-3 cell lines subcutaneously transplanted into nude mice; type: in vivo; details: 50 mg/kg orally once a day
Method: (§2) A prostate cancer model was established by subcutaneously transplanting PC-3 cell lines into nude mice, and the mice were divided into two groups (group 1: vehicle administration group (10% DSMO, 30% PEG400, 60% DW), group 2: 50 mg/kg Example 27 compound administration group). The drug was administered orally once a day for 12 times. To evaluate the therapeutic efficacy, tumors were […] before drug administration and on days 3, 6, 8, 10, 12, and 14 after drug administration, and tumor volumes were measured. Tumor volume (mm^3) was calculated as follows (tumor volume (mm^3)=(A×B^2)/2, where A=tumor long axis, B=tumor short axis), and the results are shown in FIG. 2.
Meanwhile, on day 12 of drug administration, the tumor was removed and its weight was measured, the results are shown in FIG. 3, and a photograph of the removed tumor was taken and shown in FIG. 4.

[4] = Body weight of mice during drug administration, prostate cancer model; type: in vivo, nude mice; details: 50 mg/kg orally once a day; drug administration period; FIG. 5
Method: as §2

HDAC1 = HDAC1 (Homo sapiens, UniProt Q13547); experiment: Selective inhibitory effect, HDAC Fluorogenic assay kit, HDAC1; details: read-out: HDAC1 enzyme activity (%)
Method: as §3

HDAC3 = HDAC3 (Homo sapiens, UniProt O15379); experiment: Selective inhibitory effect, HDAC Fluorogenic assay kit, HDAC3; details: read-out: HDAC3 enzyme activity (%)
Method: as §3

HDAC8 [5] = target: T1, HDAC8; experiment: HDAC8 inhibitory activity analysis (in vitro), RFU analysis, HDAC Fluorogenic assay kit; type: biochemical; details: 10 μM; compared with TSA or SAHA
Method: The compound of the Example was diluted to 1 mM (1% DMSO concentration) using DMSO to obtain a final concentration of 10 μM, and prepared by diluting 1/10 with assay buffer. In a 96-well black round-bottom plate, 5 μL of the diluted compound of the Example, 5 μL of the diluted HDAC substrate 2A, 5 μL of BSA (1 mg/mL), 5 µL of the HDAC8 enzyme diluted to an appropriate concentration, and 30 μL of assay buffer were added, and the enzyme reaction was performed at 37° C. for 30 minutes. […] Afterwards, 50 μL of 2×HDAC developer was added to each well. After reacting for 15 minutes at room temperature, the fluorescence values at excitation wavelengths of 350-380 nm and emission wavelengths of 440-460 nm were measured using a microplate reader (Synergy Neo).

HDAC2, sequence (Q92769 whole entry): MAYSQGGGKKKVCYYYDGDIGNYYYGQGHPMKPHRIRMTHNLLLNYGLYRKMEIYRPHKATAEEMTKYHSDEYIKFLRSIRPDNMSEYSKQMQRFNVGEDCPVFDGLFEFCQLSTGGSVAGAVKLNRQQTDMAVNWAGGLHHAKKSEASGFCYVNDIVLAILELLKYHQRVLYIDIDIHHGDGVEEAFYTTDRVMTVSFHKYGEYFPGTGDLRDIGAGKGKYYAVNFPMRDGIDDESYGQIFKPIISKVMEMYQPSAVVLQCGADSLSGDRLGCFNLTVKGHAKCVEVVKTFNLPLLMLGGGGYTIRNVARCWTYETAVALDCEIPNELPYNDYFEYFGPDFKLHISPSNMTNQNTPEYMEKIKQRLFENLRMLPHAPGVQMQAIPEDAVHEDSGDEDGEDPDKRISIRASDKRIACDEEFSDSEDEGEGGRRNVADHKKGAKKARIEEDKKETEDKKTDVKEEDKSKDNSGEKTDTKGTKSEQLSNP
HDAC3, sequence (O15379 whole entry): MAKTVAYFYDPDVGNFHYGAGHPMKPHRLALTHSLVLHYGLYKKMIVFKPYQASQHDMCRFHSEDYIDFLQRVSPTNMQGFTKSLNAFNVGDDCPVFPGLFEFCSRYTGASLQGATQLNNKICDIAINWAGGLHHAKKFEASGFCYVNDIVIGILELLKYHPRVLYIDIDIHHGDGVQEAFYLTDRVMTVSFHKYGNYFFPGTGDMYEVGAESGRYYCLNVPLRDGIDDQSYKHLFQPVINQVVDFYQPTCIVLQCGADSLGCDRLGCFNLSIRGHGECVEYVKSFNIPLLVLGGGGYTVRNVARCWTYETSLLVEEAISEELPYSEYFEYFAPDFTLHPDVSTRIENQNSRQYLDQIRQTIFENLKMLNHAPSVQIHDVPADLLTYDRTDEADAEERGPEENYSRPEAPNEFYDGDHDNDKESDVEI
HDAC3, sequence (Q9Y618 395-489 partner limits assumed): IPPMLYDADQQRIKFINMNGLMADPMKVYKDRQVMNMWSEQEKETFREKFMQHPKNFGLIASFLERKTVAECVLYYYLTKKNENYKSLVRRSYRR
HDAC1, sequence (Q13547 whole entry): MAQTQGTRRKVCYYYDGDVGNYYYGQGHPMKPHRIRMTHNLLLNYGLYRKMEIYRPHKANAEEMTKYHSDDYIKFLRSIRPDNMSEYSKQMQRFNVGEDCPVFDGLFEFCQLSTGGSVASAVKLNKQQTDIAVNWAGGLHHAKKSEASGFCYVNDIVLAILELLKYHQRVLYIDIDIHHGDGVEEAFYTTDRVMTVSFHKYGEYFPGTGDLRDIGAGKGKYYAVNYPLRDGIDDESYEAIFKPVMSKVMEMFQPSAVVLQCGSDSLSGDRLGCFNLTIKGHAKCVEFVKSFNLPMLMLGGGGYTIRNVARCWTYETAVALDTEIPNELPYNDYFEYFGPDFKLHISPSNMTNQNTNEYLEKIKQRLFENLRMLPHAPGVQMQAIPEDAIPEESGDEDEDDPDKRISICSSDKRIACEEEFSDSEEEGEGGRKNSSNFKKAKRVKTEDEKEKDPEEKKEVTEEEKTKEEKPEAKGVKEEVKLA

remaining activity at 10 µM (HDAC2): 91.2%
remaining activity at 10 µM (HDAC10): 87.2%
remaining activity at 10 µM (HDAC1): 76.2%
remaining activity at 10 µM (HDAC3): 73.1%
Structure (SMILES): Cc1cc2nc(C(=O)NCCc3c[nH]c4ccc(O)cc34)c(=O)n(C[C@H](O)[C@H](O)[C@H](O)CO)c2cc1C [Example 27, N-(2-(5-hydroxy-1H-indol-3-yl)ethyl)-6,7-dimethyl-3-oxo-4-((2S,3S,4R)-2,3,4,5-tetrahydroxypentyl)-3,4-dihydroquinoxaline-2-carboxamide]
body weight (in words) [1]: No rapid weight loss was observed
selective inhibitory effect on HDAC8 (in words) (HDAC8 [2]): selective and excellent inhibitory activity only against HDAC8
PC-3 cancer cell viability inhibition rate compared with PCI-34051 [3]: superior to that of PCI-34051
PC-3 cell viability (in words) [3]: effectively reduced the viability of prostate cancer cells in a concentration- and time-dependent manner
tumor volume (in words) (Huh-7 cell lines; 12 times, up to day 15, p<0.005 vs vehicle, FIG. 7A): tumor growth inhibitory effect
tumor weight (in words) (Huh-7 cell lines; tumor removed on day 15, p<0.0005 vs vehicle, FIGS. 7B and 7C): tumor weight of the vehicle group was significantly higher than that of the Example 27 compound administration group
tumor volume (in words) (PC-3 cell lines; 12 times, up to day 14, p<0.05 vs vehicle, FIG. 2): significantly reduced tumor volume growth rate compared to group 1
tumor weight (in words) (PC-3 cell lines; tumor removed on day 12, p<0.0005 vs vehicle, FIG. 3): vehicle administration group (group 1) had a significantly higher tumor weight than the Example 27 compound administration group
body weight of the mice (in words) [4]: no rapid weight loss was confirmed
inhibitory activity against HDAC8 (in words) (HDAC8 [5]): inhibitory activity similar to TSA or SAHA
